Laboratory results from patent US20190254285A1, “SODIUM PHOSPHITE COMBINATIONS” (priority 2016, published 2019).

What was measured:
Type in all cases: in vivo
black sigatoka [1] = assay: Black sigatoka on banana plants, single leaf test, leaf 3 curative, DITHANE 60 SC; conditions: for Area infected (%) / Efficacy: 8 DAA, leaf 3 curative, DITHANE 60 SC 5 liter/ha; for Area infected (%): phosphites 2 mol/l at 3 liter/ha; for Efficacy: vs untreated control
Procedure: (§1) A single leaf test was established in a research station located in the community of “Anita Grande,” county of Jimenez, province of Limon, Costa Rica (latitude 10°15′14.15″N, longitude 83°44′20.29″W).
(§2) Every treatment was established in individual plants. Treatments were applied to leaf number 1 to determine their effect as preventive. Leaf position is counted from top to bottom, whereby leaf number 1 is closest to the unfolded leaf. Treatments were distributed systematically to facilitate their location in the field.
(§3) Product applications were done in an area of 10×10 cm, with a special equipment designed to simulate aerial applications. Application was done at 35 pound-force per square inch. Since weather conditions were highly conducive for disease development, and inoculum density was very high, no artificial inoculation was done. All treatments were applied to the same position on the leaf to minimize experimental error. All treatments were applied at the equivalent volume of 25 L ha^−1, as it is done commercially. A total of 3 sprays were applied, application A at Day 0, application B at 7 days after application A (DAA), and application C at day 13 DAA. VOLLEY® 88 OL was sprayed at 5.525 L/ha and the different phosphites were applied at the same PO3 concentration of 2 mol/l and were sprayed at 3 liter/ha.
(§4) For the evaluation of the efficacy, the diseased area that was affected in the 10×10 cm leaf area was recorded. Evaluations were done 23, 30 and 36 DAA. Efficacy was calculated by comparing the treatments against the untreated control.
(§5) Similar to Example 8, with the following differences: DITHANE® 60 SC (Dow AgroSciences) at a rate of 5 liter/ha was applied instead of […] and only one measurement was performed at 23 days after application A (DAA).
(§6) Similar to Example 9, with the following differences: Treatments and measurements were applied to leaf number 3, to determine their effect as curative, and one measurement was performed at 8 days after application A (DAA).

black sigatoka [2] = assay: Black sigatoka on banana plants, single leaf test, leaf 3 curative, Bravo 72 SC; conditions: for Area infected (%) / Efficacy: 16 DAA, leaf 3 curative, Bravo 72 SC 0.875 liter/ha, phosphites 3 L/ha; for Efficacy: vs untreated control
Procedure: as §1, §2, §3, §4, §6
Similar to Example 10, with the following differences: Bravo 72 SC (chlorothalonil; Syngenta) was applied at 0.875 liter/ha instead of DITHANE® 60 SC and the phosphites were spayed at a rate of 3 L/ha. One measurement was done at 16 DAA.

powdery mildew [3] = assay: Powdery mildew on cucumber leaf disks; conditions: for Surface area (%): phosphite 16 mM, sulfur 0.1 g/L
Procedure: (§7) Leaves were taken from 5 to 6 week old tomato plant. Per treatment 5 ml was sprayed over 5 leaves and dried for 1 hour. Circular disks were punched from the treated leaves with a diameter of 11 mm. 5 disks per treatment were put on water agar in 90 mm ø petri dishes. Water agar was made by sterilizing agar-agar (5 g/L, Carl Roth), benzimidazole (30 mg/L, Sigma-Aldrich) and antibiotic tetracycline hydrochloride (25 mg/L, Carl Roth) in water. Disks were infected by brushing powdery mildew spores from an infected leave until disks were visually covered by spores. After 10 days the surface area covered by powdery mildew was measured by putting pictures of the disks through an online image analyzer. Efficacy was calculated by comparing the treatments against the untreated control. Replicates: 20 disks were used per treatment.
All phosphite concentrations were tested at a concentration of 16 mM of phosphite.
Similar to Example 7 with the following differences: Leaf disk were taken from the dicotyledon leaves when the cucumber was around 2 weeks old. 5 disks per treatment were put on water agar in 90 mm ø petri dishes, with a total of 10 leaf disks per treatment. The formulated sulfur was tested at a concentration of 0.1 g sulfur/L. Assessment was done after 14 and 21 days after infection.

black sigatoka [4] = assay: Black sigatoka on banana plants, single leaf test, leaf 1 preventive, DITHANE 60 SC; conditions: for Area infected (%) / Efficacy: 23 DAA, leaf 1 preventive, DITHANE 60 SC 5 liter/ha; for Area infected (%): phosphites 2 mol/l at 3 liter/ha; for Efficacy: vs untreated control
Procedure: as §1, §2, §3, §4, §5

Penicillium discolor = Penicillium discolor rot on wounded apples cv Gala; conditions: for Efficacy (%): rot surface area vs untreated control, phosphite 16 mM, natamycin 100 ppm
Procedure: Tested fruit: apples cv Gala from organic origin/SKAL certified. SKAL is a semi-governmental Dutch organization that controls organic production in the Netherlands. Wounds of the apples were checked at day 3. All phosphite concentrations were tested at a concentration of 16 mM of phosphonate. Natamycin (95%, Freda) solo and in combination was tested at a concentration of 100 ppm. […] Used pathogen: Penicillium discolor spore-suspension containing 4*10E6 spores/ml. Application: The fruit peel of the apple was damaged with a cork borer, ø4 mm and depth ˜0.5 cm into the fruit, with 2 wounds per apple. 40 microliter of a freshly prepared spore suspension of P. discolor was applied by pipette onto each wound. Subsequently, the spore-suspension was allowed to air-dry for 4 hours. Then, 50 microliter of a treatment as presented in the list above was applied by pipette to each wound. All fruits were kept at room temperature (20° C.). Wounds of the apples were checked after 4, 7 and 9 days of incubation. The efficacy is calculated by measuring the surface area (square mm) of the rot on the apples, and compared to the untreated control (see Table 4). Replicates: All treatments for the apple experiment were performed on six individual apples with two wounds each resulting in 12 wounds per treatment.

powdery mildew [5] = assay: Powdery mildew on tomato leaf disks; conditions: for Surface area (%): leaf disk area covered by powdery mildew after 10 days, phosphite 16 mM, sulfur 0.5 g per liter
Procedure: as §7, with “After 10 days the surface area covered by powdery mildew was measured by putting pictures of the disks through an online image analyzer.” left out, “treatment. All phosphite concentrations were tested at a concentration of 16 mM of phosphite. Formulated sulfur was applied at a dose of 0.5 g sulfur per liter. Formulated sulfur consists of the following elements: Sulfur±50% (w/w); Anionic surfactant<3%; Non-ionic surfactant <3%; Water±44%.” for “treatment.”

In the case of N.N.O=[PH](O)O [(NH4)2HPO3], the “Area infected (%)” value (black sigatoka [1]) is reported as 9.2%, the Efficacy (black sigatoka [1]) is reported as 58.6 and the “Area infected (%)” value (black sigatoka [2]) is reported as 51.0%. For the same compound, the Efficacy (black sigatoka [2]) was 28.2, the “Surface area (%)” value (powdery mildew [3]; Day 14 after infection) was 7.21% and the “Surface area (%)” value (powdery mildew [3]; Day 21 after infection) was 5.61%. For the same compound, the “Area infected (%)” value (black sigatoka [4]) was 8.0%, the Efficacy (black sigatoka [4]) was 57.9 and the “Efficacy (%)” value (Penicillium discolor; Day 4) was 71%. The “Efficacy (%)” value (Penicillium discolor; Day 7) was 60%, the “Efficacy (%)” value (Penicillium discolor; Day 9) was 55% and the “Surface area (%)” value (powdery mildew [5]) was 66.32%.
O=[PH]([O-])[O-].[K+].[K+] [Treatment K2HPO3] was tested, and the “Area infected (%)” value (black sigatoka [1]) was 12.6%, the Efficacy (black sigatoka [1]) was 43.2 and the “Area infected (%)” value (black sigatoka [2]) was 68.0%. For the same compound, the Efficacy (black sigatoka [2]) was 4.2, the “Surface area (%)” value (powdery mildew [3]; Day 14 after infection) was 5.18% and the “Surface area (%)” value (powdery mildew [3]; Day 21 after infection) was 4.84%. For the same compound, the “Area infected (%)” value (black sigatoka [4]) was 10.6%, the Efficacy (black sigatoka [4]) was 44.2 and the “Efficacy (%)” value (Penicillium discolor; Day 4) was 59%. The “Efficacy (%)” value (Penicillium discolor; Day 7) was 27%, the “Efficacy (%)” value (Penicillium discolor; Day 9) was 22% and the “Surface area (%)” value (powdery mildew [5]) was 58.68%.
disodium hydrogen phosphite [Na2HPO3] was tested, and the “Area infected (%)” value (black sigatoka [1]) was 15.4%, the Efficacy (black sigatoka [1]) was 30.6 and the “Increase of the fungal efficacy of DITHANE 60 SC compared with other phosphite salts” value (black sigatoka [1]; conclusion from Table 10, curative) was “increases the fungal efficacy of DITHANE® 60 SC the best”. For the same compound, the “Area infected (%)” value (black sigatoka [2]) was 68.0%, the Efficacy (black sigatoka [2]) was 4.2 and the “Increase of the fungal efficacy of Bravo 72 SC compared with other phosphite salts” value (black sigatoka [2]; conclusion from Table 11) was “increases the fungal efficacy of Bravo 72 SC the best”. The “Surface area (%)” value (powdery mildew [3]; Day 14 after infection) was 9.15%, the “Surface area (%)” value (powdery mildew [3]; Day 21 after infection) was 7.38% and the “Increase of the fungal efficacy of sulfur compared with other phosphite salts” value (powdery mildew [3]; conclusion from Table 12) was “increases the fungal efficacy of sulfur the best”. For the same compound, the “Area infected (%)” value (black sigatoka [4]) was 12.6%, the Efficacy (black sigatoka [4]) was 33.7 and the “Increase of the fungal efficacy of DITHANE 60 SC compared with other phosphite salts” value (black sigatoka [4]; conclusion from Table 9, preventive) was “increases the fungal efficacy of DITHANE® 60 SC the best”. For the same compound, the “Efficacy (%)” value (Penicillium discolor; Day 4) was 88%, the “Efficacy (%)” value (Penicillium discolor; Day 7) was 74% and the “Efficacy (%)” value (Penicillium discolor; Day 9) was 64%. For the same compound, the “Increase of the fungal efficacy of natamycin compared with other phosphite salts” value (Penicillium discolor; equimolar phosphite concentrations, days 4, 7, 9) was “increases the fungal efficacy of natamycin the best at all time points”, the “Increase of the fungal efficacy of sulphur compared with other phosphite salts” value (powdery mildew [5]; conclusion from Table 7) was “increases the fungal efficacy of sulphur the best” and the “Surface area (%)” value (powdery mildew [5]) was 51.20%.
